Experimental data from paper PMC11484861 (Nature Communications, 2024).
Ends that are not written are not given here.

How the values were obtained:
[1] = molecular target: GFP-PDPK1 (human (cloned from HEK293T cells)) (UniProt O15530); assay: MST
IFNB1 mRNA expression [2] = assay type: cell-based, human; conditions: HEK293T, presence vs absence of poly (I:C); P = 0.001 (Fig 6A)
mitophagy = assay type: cell-based, human
[3] = test system: SARS-CoV-2 M protein level; assay type: cell-based, human
[4] = test system: phosphorylation of SQSTM1 at T138; assay type: cell-based, human
IFNB1 mRNA expression [5] = test system: IFNB1 mRNA expression; parameters: species or system mice; conditions: mouse, in vivo
IFNB1 mRNA expression [6] = assay type: cell-based, human
[7] = test system: binding of SQSTM1 to TOMM22; assay type: cell-based, human
PEDV [8] = assay type: cell-based
IFNB1 mRNA expression [9] = assay type: cell-based, human; remark: listed apart in the source
TOMM22 level = assay type: cell-based, human; conditions: for effects of SQSTM1 on TOMM22 degradation: PDPK1-KO HEK293T, even in the presence of PDPK1, Mdivi-1 2.5 μM, CQ 50 μM, wortmannin 5 μM, 4 h (Fig 2G)
PEDV [10] = assay type: cell-based; remark: listed apart in the source
MAVS level = assay type: cell-based, human
binding of SQSTM1 to M = assay type: cell-based, human
GFP-SQSTM1 = GFP-SQSTM1 (Homo sapiens, UniProt Q13501); assay: biochemical; assay type: binding

GFP-PDPK1 (human (cloned from HEK293T cells)), sequence (O15530 whole entry): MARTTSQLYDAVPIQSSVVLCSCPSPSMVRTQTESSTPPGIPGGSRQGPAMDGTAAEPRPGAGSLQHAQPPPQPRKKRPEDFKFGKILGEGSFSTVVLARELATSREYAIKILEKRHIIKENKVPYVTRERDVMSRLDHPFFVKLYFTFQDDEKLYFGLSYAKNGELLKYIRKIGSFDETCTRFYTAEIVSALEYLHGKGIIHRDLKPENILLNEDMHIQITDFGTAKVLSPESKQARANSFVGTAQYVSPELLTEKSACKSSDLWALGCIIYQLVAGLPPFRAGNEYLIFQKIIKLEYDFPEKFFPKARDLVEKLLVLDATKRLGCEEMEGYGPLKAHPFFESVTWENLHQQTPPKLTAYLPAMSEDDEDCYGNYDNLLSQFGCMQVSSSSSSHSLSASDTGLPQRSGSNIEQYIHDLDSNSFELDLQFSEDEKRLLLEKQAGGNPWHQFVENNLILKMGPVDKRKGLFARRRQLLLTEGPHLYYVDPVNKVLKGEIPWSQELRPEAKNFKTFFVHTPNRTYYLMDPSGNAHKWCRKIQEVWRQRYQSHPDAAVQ

unlabeled M-β3-5 (MST ligand) (from UniProt P0DTC5 1-222) (domain or fragment)
Kd [1]: 71 nM

poly (I:C)
IFNB1 mRNA expression (IFNB1 mRNA expression [2]): substantially increased

NCC(=O)Nc1ccc(-n2nc(C(F)(F)F)cc2-c2ccc3c(ccc4ccccc43)c2)cc1 [OSU-03012]
decrease in GFP fluorescence of RFP-GFP-Mito caused by SQSTM1 expression (mitophagy): reversed the decrease | effect of M on the shift in the green signal to a red signal (RFP-GFP-Mito, mitophagy) (mitophagy): reversed | M levels [3]: further decreased | M/PM-induced phosphorylation of SQSTM1 at T138 [4]: inhibited | phosphorylation of SQSTM1 at T138 [4]: blocked | IFNB1 expression in lungs of VSV-M-infected mice (IFNB1 mRNA expression [5]): restored | IFNB1 expression during PEDV infection in cells (IFNB1 mRNA expression [6]): restored | binding of SQSTM1 to TOMM22 [7]: decreased | PEDV replication / viral titer (TCID50) in cells (PEDV [8]): attenuated | IFNB1 expression during VSV-M infection in cells (IFNB1 mRNA expression [9]): restored | levels of TOMM22 decreased by PM or M expression (TOMM22 level; Fig 5B): restored | TOMM22 levels (TOMM22 level; SQSTM1-KO cells with SQSTM1 expression, compared with control group (Fig S2J)): restored | PEDV M protein expression during PEDV infection (PEDV [10]): reduced | levels of MAVS decreased by PM or M expression (MAVS level): restored | binding of SQSTM1 to M (binding of SQSTM1 to M): increased

SMWSFNPETN [M-CD]
Kd (GFP-SQSTM1): 115 ± 28 nM

CCN(CC)CCCC(C)Nc1ccnc2cc(Cl)ccc12 (stereo not drawn) [CQ, chloroquine]
effects of SQSTM1 on M degradation [3]: completely abolished | effects of SQSTM1 on TOMM22 degradation (TOMM22 level): completely abolished

COC[C@H]1OC(=O)c2coc3c2[C@@]1(C)C1=C(C3=O)[C@@H]2CCC(=O)[C@@]2(C)C[C@H]1OC(C)=O [wortmannin]
effects of SQSTM1 on M degradation [3]: completely abolished | effects of SQSTM1 on TOMM22 degradation (TOMM22 level): completely abolished

Mdivi-1
effects of SQSTM1 on M degradation [3]: not M degradation | effects of SQSTM1 on TOMM22 degradation (TOMM22 level): only blocked
